Key:
[1] = tested on: Burkholderia mallei AHL-synthase; conditions: cited from earlier work
HeLa cells = test: Mammalian cell viability assay; assay type: cell-based, Human; conditions: for cell death in microphotographs: 72 h
Procedure: Human cervical carcinoma-derived HeLa cells were maintained in routine culture with weekly splitting. […] All reagents were purchased from Life Technologies. Twenty-four hours before drug treatment, cells were trypsinized, resuspended in medium and counted on a Z2 Beckman Coulter counter (Beckman Coulter) in order to obtain a confluent 12-wells plate. […] Cell viability data were derived from two independent experiments and were normalized to NT sample at 24 h. NT samples were subjected only to DMSO solvent. Microphotographs were obtained through an inverted microscope (Nikon) equipped with phase contrast and dark field illumination.

C. elegans = test: Survival of uninfected C. elegans treated with the compounds; conditions: no infection

CN1CCN(C(c2ccccn2)c2c(-c3ccccc3)n(O)c3ccccc23)CC1 (stereo not shown) [compound 1 from Christensen et al., reference compound]
activity against AHL-synthase [1]: very active

O=C1C=CC(=O)C(C2NC(=O)C(Cc3ccccc3)NC2=O)=C1 (stereo not shown) [8b]
cell viability reduction (HeLa cells; HeLa, 50 μM, 48 h): approximately 50% | reduction in cell viability (HeLa cells; HeLa, 100 μM, 24 h): ~20% | cell death in microphotographs (HeLa cells; HeLa, 50 and 100 μM): confirmed cell death | C. elegans survival (C. elegans; 1 μM, 24 h): 98 ± 5% | C. elegans survival (C. elegans; 1 μM, 48 h): 97 ± 6% | C. elegans survival (C. elegans; 5 μM, 24 h): 97 ± 7% | C. elegans survival (C. elegans; 5 μM, 48 h): 95 ± 7% | C. elegans survival (C. elegans; 10 μM, 24 h): 99 ± 2% | C. elegans survival (C. elegans; 10 μM, 48 h): 95 ± 10% | C. elegans survival (C. elegans; 25 μM, 24 h): 98 ± 5% | C. elegans survival (C. elegans; 25 μM, 48 h): 96 ± 5%

O=C1CNC(=O)C(c2cc(OCc3ccccc3)ccc2OCc2ccccc2)N1 (stereo not shown) [6a]
significant effects (p < 0.05) on cell growth (HeLa cells; HeLa, 10, 25, 50 and 100 μM, 24 h and 48 h): observed only after 48 h treatment at a concentration of 100 μM | cell death in microphotographs (HeLa cells; HeLa): did not induce cell death | C. elegans survival (C. elegans; 1 μM, 24 h): 98 ± 6% | C. elegans survival (C. elegans; 1 μM, 48 h): 91 ± 12% | C. elegans survival (C. elegans; 5 μM, 24 h): 99 ± 2% | C. elegans survival (C. elegans; 5 μM, 48 h): 98 ± 4% | C. elegans survival (C. elegans; 10 μM, 24 h): 91 ± 8% | C. elegans survival (C. elegans; 10 μM, 48 h): 86 ± 10% | C. elegans survival (C. elegans; 25 μM, 24 h): 91 ± 4% | C. elegans survival (C. elegans; 25 μM, 48 h): 91 ± 6%

From PMC5007513, “Discovery of new diketopiperazines inhibiting Burkholderia cenocepacia quorum sensing in vitro and in vivo” (Scientific Reports, 2016)
